Data published in publication PMC3914206.

Legend:
[1] = target: T1, panel of 442 kinases (Homo sapiens, UniProt P48730); format: binding; conditions: Compound Concentration 10 µM
T1 construct: purchased KINOMEscan
Description: (§1) We assessed the selectivity of members of this scaffold using the KINOMEscan methodology across a near comprehensive panel of 442 kinases [[18,27]].

[2] = target: T2, panel of 442 kinases (Homo sapiens, UniProt P41240); format: binding; conditions: Compound Concentration 10 µM
T2 construct: purchased KINOMEscan
Description: as §1

T1 sequence (P48730 whole entry): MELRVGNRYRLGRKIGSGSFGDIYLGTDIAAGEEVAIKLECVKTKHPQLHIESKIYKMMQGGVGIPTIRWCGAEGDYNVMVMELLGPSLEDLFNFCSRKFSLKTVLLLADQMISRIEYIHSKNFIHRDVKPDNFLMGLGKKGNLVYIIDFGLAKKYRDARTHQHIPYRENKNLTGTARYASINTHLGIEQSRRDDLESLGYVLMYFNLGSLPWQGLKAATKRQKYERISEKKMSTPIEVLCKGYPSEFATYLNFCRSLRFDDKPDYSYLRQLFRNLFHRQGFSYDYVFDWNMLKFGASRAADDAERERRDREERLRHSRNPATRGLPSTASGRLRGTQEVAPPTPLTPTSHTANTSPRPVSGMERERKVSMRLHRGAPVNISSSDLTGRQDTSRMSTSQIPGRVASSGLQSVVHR
T2 sequence (P41240 whole entry): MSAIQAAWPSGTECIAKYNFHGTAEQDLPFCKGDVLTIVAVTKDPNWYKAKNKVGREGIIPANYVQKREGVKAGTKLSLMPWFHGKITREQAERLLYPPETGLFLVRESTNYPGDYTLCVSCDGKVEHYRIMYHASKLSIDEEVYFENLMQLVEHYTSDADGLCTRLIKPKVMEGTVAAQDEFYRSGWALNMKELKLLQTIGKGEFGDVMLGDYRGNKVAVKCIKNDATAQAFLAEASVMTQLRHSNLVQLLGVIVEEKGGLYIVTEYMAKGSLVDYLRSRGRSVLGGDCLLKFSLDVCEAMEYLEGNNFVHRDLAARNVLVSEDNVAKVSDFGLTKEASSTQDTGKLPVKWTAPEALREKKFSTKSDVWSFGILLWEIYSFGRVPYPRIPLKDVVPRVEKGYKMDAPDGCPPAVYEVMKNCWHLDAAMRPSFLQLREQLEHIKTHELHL

Structure (SMILES) | KINOMEscan: CSNK1D [1] | KINOMEscan: CSK [2]
CCOc1cc(C(=O)N2CCC(N3CCN(C)CC3)CC2)ccc1Nc1ncc2c(n1)N(C1CCCC1)c1ccccc1C(=O)N2C [Compound 26] | 100 | 100
COc1cc(C(=O)N2CCC(N3CCN(C)CC3)CC2)ccc1Nc1ncc2c(n1)N(C1CCCC1)c1ccccc1C(=O)N2C [Compound 25, 11-cyclopentyl-2-((2-methoxy-4-(4-(4-methylpiperazin-1-yl)piperidine-1-carbonyl)phenyl)amino)-5-methyl-5H-benzo[e]pyrimido[5,4-b][1,4]diazepin-6(11H)-one] | 98 | 74
COc1cc(C(=O)N2CCC(N3CCN(C)CC3)CC2)ccc1Nc1ncc2c(n1)N1CCc3cccc(c31)C(=O)N2C [Compound 24] | 60 | 75
COc1cc(C(=O)N2CCC(N3CCN(C)CC3)CC2)ccc1Nc1ncc2c(n1)N(C)c1ccccc1C(=O)N2C [15 (LRRK2-IN-1)] | 81 | 90
